The results in this text go back to US20160185797A1, “ALKYNYL ALCOHOLS AND METHODS OF USE” (Genentech, Inc., priority 2013, published 2016).

For assay [1], the system named is p52 (NF-kB2) nuclear translocation in HeLa cells. As to the kind of experiment: p52 (NF-kB2) nuclear translocation assay in HeLa cells, anti-lymphotoxin beta receptor antibody stimulated (non-classical NF-kB signaling), high content imaging. The assay is classed as cell-based. Particulars: Homo sapiens, 100 ng/mL anti-lymphotoxin beta receptor antibody for 5 hours, read-out: p52 HeLa Transloc Assay (IC50). A digest of the protocol:
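HeLa cells in 10% FBS medium were treated with compound (0.2% DMSO final) and stimulated with 100 ng/mL anti-lymphotoxin beta receptor antibody for 5 h. Fixed cells were immunostained for p52 and imaged with DRAQ5 nuclear stain. Translocation is the nuclear to cytoplasmic intensity ratio, […].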

Assay [2] has as its system REL-A (p65) nuclear translocation in HeLa cells. The experiment in a line: REL-A (p65) nuclear translocation assay in HeLa cells, TNF-α stimulated (classical NF-kB signaling), high content imaging. The following applies: Homo sapiens, HeLa, compound 4.5 h, then 10 ng/mL TNF-α for 30 minutes, read-out: REL-A HeLa Transloc Assay (IC50). The assay is classed as cell-based. A digest of the protocol: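 HeLa cells in medium with 10% fetal bovine serum were exposed to compounds (0.2% DMSO final) for 4.5 hours, then stimulated with 10 ng/mL TNF-α for 30 minutes. After fixation in 4% paraformaldehyde and permeabilization with 0.1% Triton X-100, cells were stained with 400 ng/mL anti-REL-A (p65) antibody, an Alexa488 secondary and DRAQ5. Opera imaging quantified the nuclear-to-cytoplasmic signal ratio to give IC50.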

Assay [3] has as its target T1, nuclear factor-kappa B (NF-kB)-inducing kinase (NIK) (Homo sapiens, UniProt Q99558).
T1 construct: made in house; host or cells: baculovirus-infected insect cells
The experiment in a line: NIK enzyme inhibition assay (Transcreener ADP fluorescence polarization, NIK ADP-FP). The assay is classed as biochemical.

T1 sequence (Q99558 whole entry): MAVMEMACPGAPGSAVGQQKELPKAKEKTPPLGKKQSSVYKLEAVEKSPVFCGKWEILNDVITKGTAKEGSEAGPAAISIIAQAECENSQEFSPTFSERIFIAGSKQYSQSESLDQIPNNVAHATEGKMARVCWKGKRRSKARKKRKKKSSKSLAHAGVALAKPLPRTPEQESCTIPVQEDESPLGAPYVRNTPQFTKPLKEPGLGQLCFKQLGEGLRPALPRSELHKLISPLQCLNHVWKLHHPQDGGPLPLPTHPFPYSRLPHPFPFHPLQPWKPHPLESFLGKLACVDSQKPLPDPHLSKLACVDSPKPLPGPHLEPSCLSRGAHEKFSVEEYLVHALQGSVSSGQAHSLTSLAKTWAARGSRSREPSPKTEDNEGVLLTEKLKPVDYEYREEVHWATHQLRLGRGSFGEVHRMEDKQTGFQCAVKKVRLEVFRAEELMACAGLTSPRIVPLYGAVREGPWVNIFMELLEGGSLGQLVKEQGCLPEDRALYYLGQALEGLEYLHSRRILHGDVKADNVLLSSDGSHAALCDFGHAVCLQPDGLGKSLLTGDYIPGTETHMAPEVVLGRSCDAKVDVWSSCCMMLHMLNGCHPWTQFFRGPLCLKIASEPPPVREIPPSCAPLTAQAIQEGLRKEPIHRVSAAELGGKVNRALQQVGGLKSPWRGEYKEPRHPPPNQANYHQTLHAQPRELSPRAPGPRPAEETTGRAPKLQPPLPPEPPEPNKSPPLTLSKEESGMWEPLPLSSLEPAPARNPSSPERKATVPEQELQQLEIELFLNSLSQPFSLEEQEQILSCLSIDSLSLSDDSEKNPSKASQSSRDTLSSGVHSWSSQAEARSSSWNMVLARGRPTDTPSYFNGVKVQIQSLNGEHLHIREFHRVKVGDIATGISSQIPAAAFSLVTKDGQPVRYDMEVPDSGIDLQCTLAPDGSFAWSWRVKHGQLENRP

In the case of `CN1CC[C@@](O)(C#Cc2cccc(-c3cc(OC(F)F)cc(C(N)=O)n3)c2)C1=O` [Example 162, 4-(difluoromethoxy)-6-[3-[2-[(3R)-3-hydroxy-l-methyl-2-oxo-pyrrolidin-3-yl]ethynyl]phenyl]pyridine-2-carboxamide], the IC50 is 67 nM in assay [1] and over 2000 nM in assay [2]. The compound also yielded a Ki in assay [3] of under 0.05 nM.

As for `Cc1cc(C(N)=O)nc(-c2ccc(F)c(C#C[C@]3(O)CCN(C)C3=O)c2)c1` [Example 164, 6-[4-fluoro-3-[2-[(3R)-3-hydroxy-1-methyl-2-oxo-pyrrolidin-3-yl]ethynyl]phenyl]-4-methyl-pyridine-2-carboxamide], the IC50 in assay [1] was 62 nM; in assay [2] it was over 2000 nM. In assay [3], this compound came in with a Ki of under 0.05 nM.

For `Cc1ncc(-c2cccc(C#C[C@]3(O)CCN(C)C3=O)c2)nc1C(N)=O` [Example 165, 6-[3-[2-[(3R)-3-hydroxy-1-methyl-2-oxo-pyrrolidin-3-yl]ethynyl]phenyl]-3-methyl-pyrazine-2-carboxamide], the IC50 in assay [1] was 180 nM; in assay [2] it was over 2000 nM. Further, the inhibition constant (Ki) in assay [3] worked out at 0.08 nM.

For `Cc1ccn(-c2cc(C(N)=O)nc(-c3cccc(C#C[C@]4(O)CCN(C)C4=O)c3)n2)n1` [Example 166, 2-[3-[2-[(3R)-3-hydroxy-1-methyl-2-oxo-pyrrolidin-3-yl]ethynyl]phenyl]-6-(3-methylpyrazol-1-yl)pyrimidine-4-carboxamide], the results for the IC50 in assay [1] and in assay [2] were 59 nM and over 2000 nM, respectively. In assay [3], this compound showed a Ki of under 0.05 nM.

As for `CN1CC[C@@](O)(C#Cc2cc(F)cc(-c3nc(C(N)=O)c(N)cc3F)c2)C1=O` [Example 167, 3-amino-5-fluoro-6-[3-fluoro-5-[2-[(3R)-3-hydroxy-1-methyl-2-oxo-pyrrolidin-3-yl]ethynyl]phenyl]pyridine-2-carboxamide], the IC50 is 85 nM in assay [1] and over 2000 nM in assay [2]. This compound gave an inhibition constant (Ki) in assay [3] of under 0.05 nM.

With `Cc1cc(C(N)=O)nc(-c2cc(F)cc(C#C[C@]3(O)CCN(C)C3=O)c2)c1` [Example 168, 6-[3-fluoro-5-[2-[(3R)-3-hydroxy-1-methyl-2-oxo-pyrrolidin-3-yl]ethynyl]phenyl]-4-methyl-pyridine-2-carboxamide], the figures for the half-inhibitory concentration (IC50) in assay [1] and in assay [2] were 130 nM and over 2000 nM, respectively. Further, the affinity in assay [3] corresponds to a Ki of 0.16 nM.

On to `COc1cc(-c2cccc(C#C[C@]3(O)CCN(C)C3=O)c2)nc(C(N)=O)c1C` [Example 169, 6-[3-[2-[(3R)-3-hydroxy-1-methyl-2-oxo-pyrrolidin-3-yl]ethynyl]phenyl]-4-methoxy-3-methyl-pyridine-2-carboxamide], for which the figures for the IC50 in assay [1] and in assay [2] were 196 nM and over 2000 nM, respectively. In assay [3], this compound had a Ki of 0.55 nM.

Turning to `Cc1cc(-c2cccc(C#C[C@]3(O)CCN(C)C3=O)c2)nc(C(N)=O)c1N` [Example 170, 3-amino-6-[3-[2-[(3R)-3-hydroxy-l-methyl-2-oxo-pyrrolidin-3-yl]ethynyl]phenyl]-4-methyl-pyridine-2-carboxamide], the IC50 in assay [1] was 26 nM; in assay [2], over 2000 nM. This compound came in with an inhibitory constant (Ki) in assay [3] of under 0.1 nM.

For `COc1cc(C(N)=O)nc(-c2cc(F)cc(C#C[C@]3(O)CCN(C)C3=O)c2)c1` [Example 171, 6-[3-fluoro-5-[2-[(3R)-3-hydroxy-1-methyl-2-oxo-pyrrolidin-3-yl]ethynyl]phenyl]-4-methoxy-pyridine-2-carboxamide], the IC50 is 132 nM in assay [1] and over 2000 nM in assay [2]. Besides, the Ki in assay [3] turned out to be 0.24 nM.

For the compound `Cc1nc(-c2cccc(C#C[C@]3(O)CCN(C)C3=O)c2)nc(C(N)=O)c1N` [Example 172, 5-amino-2-[3-[2-[(3R)-3-hydroxy-1-methyl-2-oxo-pyrrolidin-3-yl]ethynyl]phenyl]-6-methyl-pyrimidine-4-carboxamide], the IC50 was 78 nM in assay [1] and over 2000 nM in assay [2]. In addition, the affinity in assay [3] corresponds to a Ki of 0.36 nM.

As to `CN1CC[C@@](O)(C#Cc2cccc(-c3cc(C(F)F)cc(C(N)=O)n3)c2)C1=O` [Example 173, 4-(difluoromethyl)-6-[3-[2-[(3R)-3-hydroxy-1-methyl-2-oxo-pyrrolidin-3-yl]ethynyl]phenyl]pyridine-2-carboxamide], the values for the 50% inhibitory concentration (IC50) in assay [1] and in assay [2] were 108 nM and over 2000 nM, respectively. In assay [3], this compound showed a Ki of 0.31 nM.

Regarding `CN1CC[C@@](O)(C#Cc2cccc(-c3cc(N4CCCC4=O)cc(C(N)=O)n3)c2)C1=O` [Example 174, 6-[3-[2-[(3R)-3-hydroxy-1-methyl-2-oxo-pyrrolidin-3-yl]ethynyl]phenyl]-4-(2-oxopyrrolidin-1-yl)pyridine-2-carboxamide], the figures for the IC50 in assay [1] and in assay [2] were 449 nM and over 2000 nM, respectively. Further, the Ki in assay [3] turned out to be 0.53 nM.

A word on the IC50: it is the concentration at which inhibition is half-maximal. As usually defined, the Ki is the equilibrium dissociation constant of an inhibitor or competing ligand from its target. High values mean lower affinity, low ones higher affinity.
